# The source made the active and inactive calls. The calls are words filed in the database; no cut-off is given here.
# Molecular target: T1, Cytosolic carboxypeptidase 2 (Homo sapiens) (UniProt Q5U5Z8)
# T1 sequence (whole entry): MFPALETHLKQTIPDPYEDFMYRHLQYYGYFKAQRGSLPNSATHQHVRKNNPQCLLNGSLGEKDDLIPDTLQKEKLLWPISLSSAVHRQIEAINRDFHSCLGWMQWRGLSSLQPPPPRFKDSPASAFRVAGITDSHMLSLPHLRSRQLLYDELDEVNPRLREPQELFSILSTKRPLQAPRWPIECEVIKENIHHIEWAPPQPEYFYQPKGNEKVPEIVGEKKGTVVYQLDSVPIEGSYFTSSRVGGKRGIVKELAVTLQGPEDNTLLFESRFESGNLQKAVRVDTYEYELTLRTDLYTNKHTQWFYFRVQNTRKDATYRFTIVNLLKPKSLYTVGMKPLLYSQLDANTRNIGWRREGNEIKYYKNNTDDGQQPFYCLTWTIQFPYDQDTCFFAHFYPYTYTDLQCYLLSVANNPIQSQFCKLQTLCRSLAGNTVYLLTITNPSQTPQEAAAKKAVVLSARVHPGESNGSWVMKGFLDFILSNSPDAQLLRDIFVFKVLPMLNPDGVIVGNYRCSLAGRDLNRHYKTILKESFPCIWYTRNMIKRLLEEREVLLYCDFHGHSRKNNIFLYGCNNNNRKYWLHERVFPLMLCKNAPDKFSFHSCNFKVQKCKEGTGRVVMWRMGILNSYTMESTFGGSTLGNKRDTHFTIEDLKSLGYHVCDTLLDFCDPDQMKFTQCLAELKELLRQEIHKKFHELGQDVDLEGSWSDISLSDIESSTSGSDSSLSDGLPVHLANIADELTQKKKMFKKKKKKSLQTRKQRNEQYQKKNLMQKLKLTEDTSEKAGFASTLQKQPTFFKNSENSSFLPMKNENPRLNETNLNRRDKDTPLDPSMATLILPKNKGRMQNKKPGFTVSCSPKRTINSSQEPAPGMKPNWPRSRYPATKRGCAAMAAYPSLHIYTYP
# Assay: Inhibition of AGBL2 (unknown origin) expressed in HEK293 stably expressing TIG1 assessed as reduction in de-tyrosinated to tyrosinated ratio of alpha-tubulin at 1 uM incubated for 2 hrs by Western blotting analysis relative to control
# Type: cell-based
row,inhibition (active/inactive call),Compound
1,Active,O=C(O)Cc1cccc(C(=O)Nc2ccc3c(c2)OCO3)c1
2,Active,Cc1cc(F)cnc1CC(=O)O
3,Active,Cc1cc(C(F)(F)F)cnc1CC(=O)O
4,Active,CC(C)c1ccc(Sc2ccc(F)cc2CC(=O)O)cc1

# — ChEMBL document CHEMBL4418494, “Small molecule inhibitors of AGBL2” (2015)
